Assay results from paper PMC10215302 (Antibiotics, 2023).
Where two headings read alike, the source gives them in different places.

Assays:
[1] = tested on: S. aureus ATCC 29213
[2] = tested on: S. aureus derivative strains; conditions: daptomycin-selected derivative strains without WalK mutations (all except SA0422), susceptible
[3] = tested on: S. aureus SA0422
[4] = tested on: S. aureus SA0085; conditions: for MIC values: Table S1: SA0085 Abf (passages on antibiotic-free media)
[5] = tested on: S. aureus SA0077; conditions: for MIC values: Table S1: SA0077 Abf (passages on antibiotic-free media)
[6] = tested on: S. aureus SA0736
[7] = tested on: S. aureus RN4220
[8] = ATCC 29213, selecting agent DAP, passage 5
[9] = ATCC 29213, selecting agent DAP, passage 20
[10] = ATCC 29213, selecting agent DAP, passage 40
[11] = ATCC 29213, selecting agent VAN, passage 0
[12] = ATCC 29213, selecting agent VAN, passage 5
[13] = ATCC 29213, selecting agent VAN, passage 20
[14] = ATCC 29213, selecting agent VAN, passage 40
[15] = SA0422, selecting agent DAP, passage 5
[16] = SA0422, selecting agent DAP, passage 20
[17] = SA0422, selecting agent DAP, passage 40
[18] = SA0422, selecting agent VAN, passage 0
[19] = SA0422, selecting agent VAN, passage 5
[20] = SA0422, selecting agent VAN, passage 20
[21] = SA0422, selecting agent VAN, passage 40
[22] = SA0085, selecting agent DAP, passage 5
[23] = SA0085, selecting agent DAP, passage 40
[24] = SA0085, selecting agent VAN, passage 0
[25] = SA0085, selecting agent VAN, passage 5
[26] = SA0085, selecting agent VAN, passage 20
[27] = SA0085, selecting agent VAN, passage 40
[28] = SA0077, selecting agent DAP, passage 5
[29] = SA0077, selecting agent DAP, passage 20
[30] = SA0077, selecting agent DAP, passage 40
[31] = SA0077, selecting agent VAN, passage 0
[32] = SA0077, selecting agent VAN, passage 5
[33] = SA0077, selecting agent VAN, passage 20
[34] = SA0077, selecting agent VAN, passage 40
[35] = SA0736, selecting agent DAP, passage 5
[36] = SA0736, selecting agent DAP, passage 20
[37] = SA0736, selecting agent DAP, passage 40Y (yellow colonies)
[38] = SA0736, selecting agent VAN, passage 0
[39] = SA0736, selecting agent VAN, passage 5
[40] = SA0736, selecting agent VAN, passage 20
[41] = SA0736, selecting agent VAN, passage 40
[42] = Table S1: SA0736 DAP-W (40 passages on daptomycin, white colonies)
[43] = Table S1: SA0736 DAP-Y (40 passages on daptomycin, yellow colonies)
[44] = Table S1: RN4220 ∆ (strain with deletion in SACOL1927)
[45] = SA0085, selecting agent DAP, passage 20

dalbavancin
MIC [1, 8]: 0.03 µg/mL | MIC [1, 9]: 0.06 µg/mL | MIC [1, 10]: 0.125 µg/mL | MIC [1, 11]: <0.016 µg/mL | MIC [1, 12]: <0.016 µg/mL | MIC [1, 13]: <0.016 µg/mL | MIC [1, 14]: 2 µg/mL | MIC [2]: ≤ 0.125 µg/mL | MIC [3, 15]: 0.06 µg/mL | MIC [3, 16]: 0.25 µg/mL | MIC [3, 17]: 0.25 µg/mL | MIC [3, 18]: 0.03 µg/mL | MIC [3, 19]: 0.125 µg/mL | MIC [3, 20]: 0.5 µg/mL | MIC [3, 21]: 1 µg/mL | MIC [4, 22]: <0.016 µg/mL | MIC [4, 23]: 0.125 µg/mL | MIC [4, 24]: <0.016 µg/mL | MIC [4, 25]: 0.06 µg/mL | MIC [4, 26]: 0.5 µg/mL | MIC [4, 27]: 0.25 µg/mL | MIC values [4]: 0.03 µg/mL | MIC [5, 28]: <0.03 µg/mL | MIC [5, 29]: 0.125 µg/mL | MIC [5, 30]: 0.125 µg/mL | MIC [5, 31]: 0.03 µg/mL | MIC [5, 32]: 0.25 µg/mL | MIC [5, 33]: 1 µg/mL | MIC [5, 34]: 2 µg/mL | MIC values [5]: 0.03 µg/mL | MIC [6, 35]: 0.03 µg/mL | MIC [6, 36]: 0.25 µg/mL | MIC [6, 37]: 0.5 µg/mL | MIC [6, 38]: 0.03 µg/mL | MIC [6, 39]: 0.125 µg/mL | MIC [6, 40]: 1 µg/mL | MIC [6, 41]: 1 µg/mL | MIC values [6, 42]: 0.5 µg/mL | MIC values [6, 43]: 0.5 µg/mL | MIC values ([7]; Table S1: RN4220 WT): 0.03 µg/mL | MIC values [7, 44]: 0.03 µg/mL

oritavancin
MIC [1, 8]: 0.06 µg/mL | MIC [1, 9]: 0.125 µg/mL | MIC [1, 10]: 2 µg/mL | MIC [1, 11]: 0.06 µg/mL | MIC [1, 12]: 0.06 µg/mL | MIC [1, 13]: 0.06 µg/mL | MIC [1, 14]: 4 µg/mL | MIC [3, 15]: 0.125 µg/mL | MIC [3, 16]: 0.5 µg/mL | MIC [3, 17]: 0.5 µg/mL | MIC [3, 18]: <0.03 µg/mL | MIC [3, 19]: 0.06 µg/mL | MIC [3, 20]: 0.25 µg/mL | MIC [3, 21]: 0.5 µg/mL | MIC [4, 22]: <0.03 µg/mL | MIC [4, 45]: 0.06 µg/mL | MIC [4, 23]: 1 µg/mL | MIC [4, 24]: <0.03 µg/mL | MIC [4, 25]: 0.06 µg/mL | MIC [4, 26]: 2 µg/mL | MIC [4, 27]: 1 µg/mL | MIC values [4]: < 0.03 µg/mL | MIC [5, 28]: 2 µg/mL | MIC [5, 29]: 4 µg/mL | MIC [5, 30]: 4 µg/mL | MIC [5, 31]: <0.03 µg/mL | MIC [5, 32]: 0.125 µg/mL | MIC [5, 33]: 2 µg/mL | MIC [5, 34]: 2 µg/mL | MIC values [5]: 0.06 µg/mL | MIC [6, 35]: <0.03 µg/mL | MIC [6, 36]: 2 µg/mL | MIC [6, 37]: 4 µg/mL | MIC [6, 38]: <0.03 µg/mL | MIC [6, 39]: 0.25 µg/mL | MIC [6, 40]: 2 µg/mL | MIC [6, 41]: 2 µg/mL | MIC values [6, 42]: 4 µg/mL | MIC values [6, 43]: 4 µg/mL | MIC values ([7]; Table S1: RN4220 WT): 0.016 µg/mL | MIC values [7, 44]: 0.016 µg/mL

teicoplanin [TEC]
MIC [1, 8]: 0.5 µg/mL | MIC [1, 9]: 2 µg/mL | MIC [1, 10]: 4 µg/mL | MIC [1, 11]: 0.06 µg/mL | MIC [1, 12]: 0.06 µg/mL | MIC [1, 13]: 2 µg/mL | MIC [1, 14]: 8 µg/mL | MIC [3, 15]: 0.25 µg/mL | MIC [3, 16]: 1 µg/mL | MIC [3, 17]: 1 µg/mL | MIC [3, 18]: 0.5 µg/mL | MIC [3, 19]: 2 µg/mL | MIC [3, 20]: 4 µg/mL | MIC [3, 21]: 4 µg/mL | MIC [4, 22]: 0.125 µg/mL | MIC [4, 45]: 8 µg/mL | MIC [4, 23]: 8 µg/mL | MIC [4, 24]: 0.125 µg/mL | MIC [4, 25]: 1 µg/mL | MIC [4, 26]: 2 µg/mL | MIC [4, 27]: 8 µg/mL | MIC values [4]: .125 µg/mL | MIC [5, 29]: 0.25 µg/mL | MIC [5, 30]: 0.25 µg/mL | MIC [5, 31]: 0.25 µg/mL | MIC [5, 32]: 8 µg/mL | MIC [5, 33]: 8 µg/mL | MIC [5, 34]: 8 µg/mL | MIC values [5]: .125 µg/mL | MIC [6, 35]: 0.25 µg/mL | MIC [6, 36]: 8 µg/mL | MIC ([6]; SA0736, selecting agent DAP, passage 40W (white colonies)): 8 µg/mL | MIC [6, 37]: 8 µg/mL | MIC [6, 38]: 0.25 µg/mL | MIC [6, 39]: 4 µg/mL | MIC [6, 41]: 8 µg/mL | MIC values [6, 42]: 8 µg/mL | MIC values [6, 43]: 8 µg/mL | MIC values ([7]; Table S1: RN4220 WT): 0.25 µg/mL | MIC values [7, 44]: 0.25 µg/mL
